This assay has as its system LG0567-F671-PDC multi-cell spheroid viability. As to the kind of experiment: Anticancer human tumor LG0567-F671-PDC patient-derived lung adenocarcinoma cell line growth inhibition [IpAb]. As to conditions: for viability, T/C: stronger effect = lower value. In outline:
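Multi-cell spheroids of 60% tumour cells, 25% HUVEC and 15% MSC in ultra-low-attachment U-bottom wells, treated with agents combined with ipatasertib or abemaciclib. Half-log ranges top out near clinical Cmax, or 10 microM when Cmax is unknown.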

The mark [1] stands for this setting: curve of first compound, second compound 0.01 µM.
Setting [2] is: curve of first compound, second compound 0.0316 µM.
The mark [3] stands for this setting: curve of first compound, second compound 0.1 µM.
[4] abbreviates: curve of first compound, second compound 0.316 µM.
Setting [5] is: curve of first compound, second compound 1 µM.
The mark [6] stands for this setting: second compound 0.1 µM, first compound 0.00949 µM.
Setting [7] is: second compound 0.1 µM, first compound 0.03 µM.
Where [8] appears, read: second compound 0.1 µM, first compound 0.0949 µM.
[9] abbreviates: second compound 0.1 µM, first compound 0.3 µM.
Where [10] appears, read: second compound 0.316 µM, first compound 0.00949 µM.
The mark [11] stands for this setting: second compound 0.316 µM, first compound 0.03 µM.
The mark [12] stands for this setting: second compound 0.316 µM, first compound 0.0949 µM.
Setting [13] is: second compound 0.316 µM, first compound 0.3 µM.
Where [14] appears, read: second compound 1 µM, first compound 0.00949 µM.
The mark [15] stands for this setting: second compound 1 µM, first compound 0.03 µM.
Where [16] appears, read: second compound 1 µM, first compound 0.0949 µM.
[17] abbreviates: second compound 1 µM, first compound 0.3 µM.

pIC50: −log10 of the molar value. Values joined by “and” are separate entries in the source; they are usually repeats but may differ in a detail not shown here. Identical values can stand only once. Bounds are passed on as bounds.

The record followed here is PubChem BioAssay AID2060332 (Molecular Pharmacology Branch, DTP, NCI, 2025).
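Further: viability read after 7 days of drug exposure.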
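Wherever viability, T/C is given: 100% = DMSO vehicle control luminescence.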

In the case of `CC(C)n1nc(-c2ccc3oc(N)nc3c2)c2c(N)ncnc21` + CCN1CCN(Cc2ccc(Nc3ncc(F)c(-c4cc(F)c5nc(C)n(C(C)C)c5c4)n3)nc2)CC1, the pIC50 runs as follows: under setting [1], 7.52; under setting [2], 7.94; under setting [3], 7.87; under setting [4], 8.16; under setting [5], 8.18. In addition, the viability, T/C (second compound 0.01 µM, first compound 0.000316 µM) was 111%; the viability, T/C (second compound 0.01 µM, first compound 0.001 µM) is 88.4%; the viability, T/C (second compound 0.01 µM, first compound 0.00316 µM) was 65.4%; the viability, T/C (second compound 0.01 µM, first compound 0.01 µM) was 70.2%; the viability, T/C (second compound 0.01 µM, first compound 0.0316 µM) is 50%; the viability, T/C (second compound 0.01 µM, first compound 0.1 µM) was 38.6%. For the same molecule, the viability, T/C was 86.8% (second compound 0.0316 µM, first compound 0.000316 µM); 80.8% (second compound 0.0316 µM, first compound 0.001 µM); 73.8% (second compound 0.0316 µM, first compound 0.00316 µM); 52.9% (second compound 0.0316 µM, first compound 0.01 µM); 34.9% (second compound 0.0316 µM, first compound 0.0316 µM); 35% (second compound 0.0316 µM, first compound 0.1 µM). In addition, the viability, T/C is 65.5% (second compound 0.1 µM, first compound 0.000316 µM); 70.2% (second compound 0.1 µM, first compound 0.001 µM); 47.8% (second compound 0.1 µM, first compound 0.00316 µM); 55.6% (second compound 0.1 µM, first compound 0.01 µM); 46.7% (second compound 0.1 µM, first compound 0.0316 µM); 29.1% (second compound 0.1 µM, first compound 0.1 µM). For the same molecule, the viability, T/C is, setting by setting: (second compound 0.316 µM, first compound 0.000316 µM) 66.4%; (second compound 0.316 µM, first compound 0.001 µM) 53.2%; (second compound 0.316 µM, first compound 0.00316 µM) 69.8%; (second compound 0.316 µM, first compound 0.01 µM) 38.5%; (second compound 0.316 µM, first compound 0.0316 µM) 39.6%; (second compound 0.316 µM, first compound 0.1 µM) 36.8%. The viability, T/C reads like this: (second compound 1 µM, first compound 0.000316 µM) 57.1%; (second compound 1 µM, first compound 0.001 µM) 61.7%; (second compound 1 µM, first compound 0.00316 µM) 56.3%; (second compound 1 µM, first compound 0.01 µM) 40.9%; (second compound 1 µM, first compound 0.0316 µM) 43.6%; (second compound 1 µM, first compound 0.1 µM) 27.9%.
`CC(=O)c1c(C)c2cnc(Nc3ccc(N4CCNCC4)cn3)nc2n(C2CCCC2)c1=O` + CC(C)NCC(C(=O)N1CCN(c2ncnc3c2C(C)CC3O)CC1)c1ccc(Cl)cc1: the pIC50 was below 6.52 under setting [3]; below 6.52 under setting [4]; below 6.52 under setting [5]; below 6.52 (curve of first compound, second compound 3.16 µM); below 6.52 (curve of first compound, second compound 10 µM). In addition, the viability, T/C by setting is: (second compound 0.1 µM, first compound 0.000949 µM) 89.3%; (second compound 0.1 µM, first compound 0.003 µM) 84.7%; under setting [6], 68.9%; under setting [7], 69.5%; under setting [8], 67.7%; under setting [9], 75.6%. For the same molecule, the viability, T/C runs as follows: (second compound 0.316 µM, first compound 0.000949 µM) 66.5%; (second compound 0.316 µM, first compound 0.003 µM) 71.5%; under setting [10], 69.7%; under setting [11], 61.3%; under setting [12], 58.1%; under setting [13], 62.5%. The viability, T/C reads like this: (second compound 1 µM, first compound 0.000949 µM) 76.3%; (second compound 1 µM, first compound 0.003 µM) 73.6%; under setting [14], 78.9%; under setting [15], 66%; under setting [16], 63.1%; under setting [17], 75.2%. Moreover, the viability, T/C runs as follows: (second compound 3.16 µM, first compound 0.000949 µM) 61.2%; (second compound 3.16 µM, first compound 0.003 µM) 80.1%; (second compound 3.16 µM, first compound 0.00949 µM) 74.2%; (second compound 3.16 µM, first compound 0.03 µM) 69.1%; (second compound 3.16 µM, first compound 0.0949 µM) 68.4%; (second compound 3.16 µM, first compound 0.3 µM) 69.2%. For the same molecule, the viability, T/C (second compound 10 µM, first compound 0.000949 µM) is 71.7%; the viability, T/C (second compound 10 µM, first compound 0.003 µM) was 84.8%; the viability, T/C (second compound 10 µM, first compound 0.00949 µM) was 79.3%; the viability, T/C (second compound 10 µM, first compound 0.03 µM) was 59.6%; the viability, T/C (second compound 10 µM, first compound 0.0949 µM) is 60.3%; the viability, T/C (second compound 10 µM, first compound 0.3 µM) was 58.4%.
As for `CC1(C)CCC(CN2CCN(c3ccc(C(=O)NS(=O)(=O)c4ccc(NCC5CCOCC5)c([N+](=O)[O-])c4)c(Oc4cnc5[nH]ccc5c4)c3)CC2)=C(c2ccc(Cl)cc2)C1`, the viability, T/C was 96.3% and 101% (compound 0.0316 µM); 87.4% and 110% (compound 0.1 µM); 86.8% and 105% (compound 0.316 µM); 112% and 113% (compound 1 µM); 145% and 143% (compound 3.16 µM); 25.2% and 23% (compound 10 µM). The pIC50 (curve of compound) was 5.15.
Turning to `Cn1cnc2c(F)c(Nc3ccc(Br)cc3Cl)c(C(=O)NOCCO)cc21` + CCN1CCN(Cc2ccc(Nc3ncc(F)c(-c4cc(F)c5nc(C)n(C(C)C)c5c4)n3)nc2)CC1, the pIC50 runs as follows: under setting [1], 7.72; under setting [2], 7.92; under setting [3], above 8.02; under setting [4], above 8.02; under setting [5], above 8.02. For the same molecule, the viability, T/C is 55% (second compound 0.01 µM, first compound 0.00949 µM); 48% (second compound 0.01 µM, first compound 0.03 µM); 28.8% (second compound 0.01 µM, first compound 0.0949 µM); 22.5% (second compound 0.01 µM, first compound 0.3 µM); 19.9% (second compound 0.01 µM, first compound 0.949 µM); 13.4% (second compound 0.01 µM, first compound 3 µM). Besides, the viability, T/C reads like this: (second compound 0.0316 µM, first compound 0.00949 µM) 53.5%; (second compound 0.0316 µM, first compound 0.03 µM) 36.4%; (second compound 0.0316 µM, first compound 0.0949 µM) 27.9%; (second compound 0.0316 µM, first compound 0.3 µM) 17.3%; (second compound 0.0316 µM, first compound 0.949 µM) 20.2%; (second compound 0.0316 µM, first compound 3 µM) 13.5%. Also, the viability, T/C under setting [6] is 47.5%; the viability, T/C under setting [7] is 38.5%; the viability, T/C under setting [8] was 28%; the viability, T/C under setting [9] is 17.4%; the viability, T/C (second compound 0.1 µM, first compound 0.949 µM) is 17%; the viability, T/C (second compound 0.1 µM, first compound 3 µM) is 10.6%. The viability, T/C runs as follows: under setting [10], 48.8%; under setting [11], 29.9%; under setting [12], 33.6%; under setting [13], 24.7%; (second compound 0.316 µM, first compound 0.949 µM) 17.4%; (second compound 0.316 µM, first compound 3 µM) 11.4%. The viability, T/C reads like this: under setting [14], 45%; under setting [15], 35.2%; under setting [16], 29.6%; under setting [17], 27.5%; (second compound 1 µM, first compound 0.949 µM) 18.6%; (second compound 1 µM, first compound 3 µM) 11.3%.
In the case of `C=CCn1c(=O)c2cnc(Nc3ccc(N4CCN(C)CC4)cc3)nc2n1-c1cccc(C(C)(C)O)n1`, the viability, T/C reads like this: (compound 0.0316 µM) 101% and 104%; (compound 0.1 µM) 76.4% and 73.2%; (compound 0.316 µM) 46.1% and 54.2%; (compound 1 µM) 45.3% and 54%; (compound 3.16 µM) 37.1% and 57.6%; (compound 10 µM) 30.6% and 41.5%.
